From patent US20250213547A1, “METHODS OF TREATING NEUROLOGICAL DISEASES” (priority 2022, published 2025)

Experiment: clinical
Type: in vivo
Conditions: human; for Cmax: mean
Text: The first-in-human clinical trial administered a single-rising dose and included 48 healthy men and women aged 19-55 with a body mass index between 18 kg/m2 and 30 kg/m2. […] Examples 2-5 herein further describes the trial protocol and the results, including data on the bioavailability of solution versus tablet (example 3), fed versus fasting patients (example 4), and PD data (example 5). The data obtained from this trial informed on the safe dosage range for future trials, and was included in the first-step of the modeling analysis described in example 12.
The study enrolled 48 subjects in the single rising dose study. Subjects were sorted into six cohorts and randomly assigned to treatment or placebo groups.
A prior study of soticlestat dosing in dogs guided the safety margin of minimal and maximal single dose selection for human subjects. An initial dosage of 10 mg provided a 44-fold safety margin relative to the maximum safe dosage in dogs. […] Each dose trial contained two placebo subjects. Ascending doses were tested in 2 sentinel subjects at a time to determine safety and tolerability before including the full cohort.
The analytes and internal standards were extracted by solid phase extraction or by dilution. […] Multiple analyses of pooled samples (n=6) verified intra- and inter-assay accuracy with an acceptance criteria of within 15% (CV≤15%) or 20% (CV≤20%) for the LLOQ. PK parameters were analyzed from plasma and urine concentration time data using standard non-compartmental analysis methods with Phoenix WinNonlin™ version 6.3 (Certara, Princeton, N.J. USA). All statistical analyses were performed using SAS software version 9.2 (SAS Institute Inc., Cary, N.C. USA).

[1] = both sexes, in vivo, po, 200 mg
[2] = both sexes, in vivo, po, 600 mg
[3] = both sexes, in vivo, po, 900 mg
[4] = both sexes, in vivo, po, 1350 mg

O=C(c1cccnc1-c1ccncc1)N1CCC(O)(Cc2ccccc2)CC1 [soticlestat]
CL renal (both sexes, in vivo): 3.83 to 10.3 mL/min | Tmax (both sexes, in vivo, po): 15 to 31.2 min | half-life (both sexes, in vivo, po): 49.2 to 430 min | Tmax (both sexes, in vivo, po, 15 mg): 15 min | Cmax (both sexes, in vivo, po, 15 mg): 43.5 ng/mL | AUC(0-inf) (both sexes, in vivo, po, 50 mg): 172 ng·h/mL | AUC(0-t) (both sexes, in vivo, po, 50 mg): 169 ng·h/mL | Tmax (both sexes, in vivo, po, 50 mg): 15 min | Vd/F (both sexes, in vivo, po, 50 mg): 1500 L | Cmax (both sexes, in vivo, po, 50 mg): 210 ng/mL | AUC(0-inf) [1]: 621 ng·h/mL | AUC(0-t) [1]: 563 ng·h/mL | Tmax [1]: 15 min | Vd/F [1]: 2240 L | Cmax [1]: 571 ng/mL | Tmax [2]: 31.2 min | Vd/F [2]: 993 L | Cmax [2]: 4550 ng/mL | AUC(0-inf) [3]: 7660 ng·h/mL | AUC(0-t) [3]: 7620 ng·h/mL | Vd/F [3]: 1230 L | Cmax [3]: 5080 ng/mL | AUC(0-inf) [4]: 13500 ng·h/mL | AUC(0-t) [4]: 13500 ng·h/mL | Vd/F [4]: 852 L | Cmax [4]: 7950 ng/mL | Vd/F (both sexes, plasma, single oral solution dose 15 mg, read-out: Vz/F, mean): 732 L | time of second smaller plasma peak post-dose (both, in vivo): approximately 10 hours | t1/2z, mean (both, in vivo, po, 15 mg): 49.2 min | t1/2z, mean (both, in vivo, po, 50 mg): 179 min | t1/2z, mean (both, in vivo, po, 200 mg): 263 min | AUC(0-t), mean (both, in vivo, po, 600 mg): 5790 ng·h/mL | AUC∞, mean (both, in vivo, po, 600 mg): 5810 ng·h/mL | t1/2z, mean (both, in vivo, po, 600 mg): 286 min | Tmax, median (both, in vivo, po, 900 mg): 30 min | t1/2z, mean (both, in vivo, po, 900 mg): 430 min | Cmax, mean (both, in vivo, po, 1350 mg): 7953 ng/mL | t1/2z, mean (both, in vivo, po, 1350 mg): 319 min | dose-proportionality slope, AUC(0-t) (log-log) (in vivo): 1.38 (1.28, 1.48) | dose-proportionality slope, AUC∞ (log-log) (in vivo): 1.42 (1.31, 1.53) | dose-proportionality slope, Cmax (log-log) (in vivo): 1.22 (1.11, 1.32) | CL/F, mean (in vivo, po, 15 mg): 689 L/h | CL/F, mean (in vivo, po, 50 mg): 549 L/h | CL/F, mean (in vivo, po, 200 mg): 355 L/h | CL/F, mean (in vivo, po, 600 mg): 145 L/h | CL/F, mean (in vivo, po, 900 mg): 124 L/h | CL/F, mean (in vivo, po, 1350 mg): 112 L/h
